For data set [1], the system named is RPE. The data set can be described thus: Alu RNA-induced RPE degeneration in wild-type mice, inhibitors given intravitreously. The conditions noted are these: WT mice, subretinal Alu RNA, inhibitor intravitreous. Type of data set: in vivo. Here is the method:
(§1) Subretinal injection and imaging. Subretinal injections (1 μL) were performed using a Pico-Injector (PLI-100, Harvard Apparatus). Plasmids were transfected in vivo using 10% Neuroporter (Genlantis). Fundus imaging was performed on a TRC-50 IX camera (Topcon) linked to a digital imaging system (Sony). RPE flat mounts were immunolabeled using antibodies against zonula occludens-1 (Invitrogen).
(§2) Retinal photographs of dilated mouse eyes were taken with a TRC-50 IX camera (Topcon) linked to a digital imaging system (Sony).
(§3) Human eyes fixed in 2-4% paraformaldehyde were prepared as eyecups, cryoprotected in 30% sucrose, embedded in optimal cutting temperature compound (Tissue-Tek OCT; Sakura Finetek), and cryosectioned into 10 μm sections. Depigmentation was achieved using 0.25% potassium permanganate and 0.1% oxalic acid. Immunohistochemical staining was performed with the rabbit antibody against NLRP3 (1:100, Sigma Aldrich) or rabbit antibody against Caspase-1 (prediluted, AbCam). Isotype IgG was substituted for the primary antibody to assess the specificity of the staining. Bound antibody was detected with biotin-conjugated secondary antibodies, followed by incubation with ABC reagent and visualized by Vector Blue (Vector Laboratories). Levamisole (Vector Laboratories) was used to block endogenous alkaline phosphatase activity. Slides were washed in PBS, counterstained with neutral red (Fisher Scientific), rinsed with deionized water, air dried, and then mounted in Vectamount (Vector Laboratories). Fluorescent labeling of human tissue was performed with the rabbit antibody against PYCARD (1:50, Clone N-15, Santa Cruz Biotechnology) Immunolabeling was visualized by fluorescently conjugated anti-rabbit secondary antibody (Invitrogen). Tissue autofluorescence was quenched by incubating the sections in 0.3% Sudan black (Fisher Scientific). Sections were mounted in Vectashield with DAPI (Vector Laboratories). Mouse RPE/choroid flat mounts were fixed with 4% paraformaldehyde or 100% methanol, stained with rabbit antibodies against human zonula occludens-1 (1:100, Invitrogen) and visualized with Alexa594 (Invitrogen). All images were obtained using the Leica SP-5 or Zeiss Axio Observer Z1 microscopes.
(§4) Subretinal injections (1 μL) in mice were performed using a Pico-Injector (PLI-100, Harvard Apparatus). In vivo transfection of plasmids coding for two different Alu sequences (pAlu) or empty control vector (pNull) (Bennett et al., 2008; Kaneko et al., 2011; Shaikh et al., 1997) was achieved using 10% Neuroporter (Genlantis). AAV1-BEST1-Cre (Alexander and Hauswirth, 2008) or AAV1-BEST1-GFP were injected at 1.0×10^11 pfu/mL and in vitro transcribed Alu RNA was injected at 0.3 mg/mL.
(§5) siRNAs formulated in siRNA buffer (20 mM KCL, 0.2 mM MgCl2 in HEPES buffer at pH 7.5; Dharmacon) or phosphate buffered saline (PBS; Sigma-Aldrich); the TLR4 antagonist Ultra Pure Rhodobacter sphaeroides LPS (LPS-RS, InvivoGen), a peptide inhibitor of MyD88 homodimerization IMG-2005 (IMGENEX), control inhibitor (IMGENEX), recombinant IL-18 (Medical & Biological Laboratories), neutralizing rat antibodies against mouse IL-1β (IMGENEX), neutralizing rat antibodies against mouse IL-18 (Medical & Biological Laboratories), isotype control IgGs (R&D Systems or eBioscience as appropriate), Caspase-1 inhibitor Z-WEHD-FMK (R&D Systems), Caspase control inhibitor Z-FA-FMK (R&D Systems), DPI (Enzo Life Sciences), Mito-TEMPO (Enzo Life Sciences), MitoQ and dTPP (both adsorbed to cyclodextrin and provided by M.P. Murphy, MRC Mitochondrial Biology Unit), and gp91ds-tat and scrambled gp91 ds-tat (both Anaspec), were dissolved in phosphate buffered saline (PBS; Sigma-Aldrich) or dimethyl sulfoxide (DMSO; Sigma-Aldrich), and injected into the vitreous humor in a total volume of 1 μL with a 33-gauge Exmire microsyringe (Ito Corporation). […] As a control, Luc siRNA-chol (17+2 nt) was used with identical dosages.

For data set [2], the system named is human RPE cells. Conditions: glycine 5 mM, LPS 5 μg/ml 6 h, ATP 25 μM. Here is the method:
(§6) MTS assays were performed using the CellTiter 96 AQueous One Solution Cell Proliferation Assay (Promega) according to the manufacturer's instructions. For examining the cytoprotective effect of glycine in Alu RNA induced cell death, human RPE cells were transfected with pNull/pAlu. At 6 h post-transfection the cells were incubated with complete media containing glycine (5 mM) or vehicle, and cell viability was assessed after 24 h. Similarly, human RPE cells primed with LPS (5 μg/ml for 6 h) were treated with ATP (25 μM) in the presence of glycine containing media (5 mM). 30 min post ATP cell viability was assessed as described above.

In data set [3] the test system is RPE. The data set is described as follows: pAlu-induced RPE degeneration in wild-type mice, inhibitors given intravitreously. Type of data set: in vivo. The conditions noted are these: WT mice, subretinal pAlu, inhibitor intravitreous, fundus photographs and ZO-1 flat mounts. As to the method:
as §1, §2, §3, §4
as §5, with “dosages. […]” for “dosages.”

Data set [4] deals with human RPE cells. The conditions noted are these: peptide 100 μM. Here is the method:
All cell cultures were maintained at 37° C. and 5% CO2. Primary mouse RPE cells were isolated as previously described (Yang et al., 2009) and grown in Dulbecco Modified Eagle Medium (DMEM) supplemented with 20% FBS and standard antibiotics concentrations. Primary human RPE cells were isolated as previously described (Yang et al., 2008) and maintained in DMEM supplemented with 10% FBS and antibiotics. HeLa cells were maintained in DMEM supplemented with 20% FBS and standard antibiotics concentrations. THP-1 cells were cultured in RPMI 1640 medium supplemented with 10% FBS and antibiotics.
as §6
MTS assays were performed using the CellTiter 96 AQueous One Solution Cell Proliferation Assay (Promega) according to the manufacturer's instructions.

The test system of a further data set is NLRP3 and IL18 mRNAs. The data set can be described thus: NLRP3 and IL18 mRNA in human RPE cells (real-time RT-PCR). Type of data set: cell-based. The text has this: Transcript abundance was quantified by real-time RT-PCR using an Applied Biosystems 7900 HT Fast Real-Time PCR system by the 2^−ΔΔCt method.
Total RNA was extracted from tissues or cells using Trizol reagent (Invitrogen) according to manufacturer's recommendations, DNase treated and reverse transcribed (QuantiTect, Qiagen). The RT products (cDNA) were amplified by real-time quantitative PCR (Applied Biosystems 7900 HT Fast Real-Time PCR system) with Power SYBR green Master Mix. Oligonucleotide primers specific for human IL1B (forward 5′-[…]-3′ and reverse 5′-[…]-3′), human IL18 (forward 5′-[…]-3′ and reverse 5′-[…]-3′), human NLRP3 (forward 5′-[…]-3′ and reverse 5′-[…]-3′), human PYCARD (forward 5′-[…]-3′ and reverse 5′-[…]-3′), human VDAC1 (forward 5′-[…]-3′ and reverse 5′-[…]-3′), human VDAC2 (forward 5′-[…]-3′ and reverse 5′-[…]-3′), human VDAC3 (forward 5′-[…]-3′ and reverse 5′-[…]-3′), human 18S rRNA (forward 5′-[…]-3′ and reverse 5′-[…]-3′), mouse Myd88 (forward 5′-[…]-3′ and reverse 5′-[…]-3′), mouse Nlrp3 (forward 5′-[…]-3′ and reverse 5′-[…]-3′), mouse Il18 (forward 5′-[…]-3′ and reverse 5′-[…]-3′), and mouse 18S rRNA (forward 5′-[…]-3′ and reverse 5′-[…]-3′) were used. The QPCR cycling conditions were 50° C. for 2 min, 95° C. for 10 min followed by 40 cycles of a two-step amplification program (95° C. for 15 s and 58° C. for 1 min). At the end of the amplification, melting curve analysis was applied using the dissociation protocol from the Sequence Detection system to exclude contamination with unspecific PCR products. […] For negative controls, no RT products were used as templates in the QPCR and verified by the absence of gel-detected bands. Relative expressions of target genes were determined by the 2^−ΔΔCt method.
For orientation: In qPCR the cycle at which signal appears reflects the starting amount.

“Also recorded” adds a separate entry of the source. Read-outs that look alike come from different tables or passages of the source. *: point of attachment. Cbz = O=C(OCc1ccccc1)*; CH2F = FC*

The record followed here is patent US9453226B2, “Protection of cells from Alu-RNA-induced degeneration and inhibitors for protecting cells” (UNIVERSITY OF KENTUCKY RESEARCH FOUNDATION, priority 2011, dated 2016).

In the case of `COC1=C(OC)C(=O)C(CCCCCCCCCC[P+](c2ccccc2)(c2ccccc2)c2ccccc2)=C(C)C1=O` [MitoQ], the “Alu RNA-induced RPE degeneration” value with RPE [1] is “prevent; also recorded: blocked”.

Take `NCC(=O)O` [glycine]: the “human RPE cell death induced by LPS+ATP” value with human RPE cells [2] is “inhibited”; in the data set with human RPE cells [2] (listed as Glycine), “inhibits”.

As to `CC1(C)CC(NC(=O)C[P+](c2ccccc2)(c2ccccc2)c2ccccc2)CC(C)(C)N1[O]` [Mito-TEMPO], the “Alu RNA-induced RPE degeneration” value in the data set on RPE [1] was “blocked”; with RPE [1] (listed as MitoTempo), “prevent”.

Regarding DRQIKIWFQNRRMKWKK [control peptide], the “Alu RNA-induced RPE degeneration” value with RPE [1] is “did not do so”.

On to Cbz-IETD-CH2F, for which the “pAlu-induced RPE degeneration” value is reported as “blocked RPE degeneration” with RPE [3] and “protects” with RPE [3] (listed as Caspase-8 inhibitor). Also, the “pAlu-induced cytotoxicity in human RPE cells” value with human RPE cells [4] is given as “inhibited human RPE cell death; also recorded: protects”.

Consider `c1ccc([I+]c2ccccc2)cc1` [DPI, diphenyliodonium], for which, in the data set with RPE [1], the “Alu RNA-induced RPE degeneration” value was “blocked”. The “pAlu-induced RPE degeneration” value in the data set with RPE [3] is “protects”. For the same molecule, the “pAlu-induced NLRP3 and IL18 mRNA upregulation” value in the data set on NLRP3 and IL18 mRNAs was “blocks; also recorded: blocked pAlu-induced NLRP3 and IL18 mRNA upregulation”.
